Patent publication US20230143612A1 (Arbutus Biopharma Corporation, priority 2020, published 2023)

The compounds below were run against PD-L1 His protein / PD-1 Fc protein (Homo sapiens, UniProt Q9NZQ7) (assay: HTRF Assay (PD-1/PD-L1 interaction)). Settings: PD-L1 His 6 nM, PD-1 Fc 6 nM.
Chain of PD-L1 His protein / PD-1 Fc protein (Q9NZQ7 19-238 limits assumed): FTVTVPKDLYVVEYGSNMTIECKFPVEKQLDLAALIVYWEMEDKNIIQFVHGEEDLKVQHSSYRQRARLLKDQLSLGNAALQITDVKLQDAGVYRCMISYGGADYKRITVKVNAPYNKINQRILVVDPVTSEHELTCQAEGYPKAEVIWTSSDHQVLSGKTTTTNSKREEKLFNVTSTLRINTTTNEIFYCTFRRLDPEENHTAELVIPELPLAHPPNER
Format: binding
Procedure, shortened: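 HTRF: PD-L1 His (6 nM final), compound (3-fold dilutions, 20 μM to 0.001 μM final) and PD-1 Fc (6 nM final) preincubated 15 min at room temperature. Anti-human IgG-XL665 and anti-6HIS Tb cryptate (mixed at 6.7 nM and 0.35 nM) then added for 1 h at room temperature before reading.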
For `COc1nc(-c2cccc(-c3cccc(-c4ccn5c(=O)c(CNCC6(O)CCC6)cnc5c4)c3Cl)c2Cl)ccc1CNC[C@@H]1CCC(=O)N1` [Example 233, (S)-8-(2,2′-Dichloro-3′-(6-methoxy-5-((((5-oxopyrrolidin-2-yl)methyl)amino)methyl)pyridin-2-yl)-[1,1′-biphenyl]-3-yl)-3-((((1-hydroxycyclobutyl)methyl)amino)methyl)-4H-pyrido[1,2-a]pyrimidin-4-one], the IC50 was 0.2 nM. Work on `COc1nc(-c2cccc(-c3cccc(-c4ccc5c(CNC[C@@H]6CCC(=O)N6)cn(C)c5c4)c3Cl)c2Cl)ccc1CNC[C@@H]1CCC(=O)N1` [Example 452, (5S)-5-[[[6-[2-Chloro-3-[2-chloro-3-[1-methyl-3-[[[(2S)-5-oxopyrrolidin-2-yl]methylamino]methyl]indol-6-yl]phenyl]phenyl]-2-methoxy-3-pyridyl]methylamino]methyl]pyrrolidin-2-one] yielded an IC50 of 68 nM. Work on `COc1nc(-c2cccc(-c3cccc(-c4ccn5c(=O)c(CN6CC7(CC(O)C7)C6)cnc5c4)c3Cl)c2Cl)ccc1CNC[C@@H]1CCC(=O)N1` [Example 346, (S)-8-(2,2′-Dichloro-3′-(6-methoxy-5-((((5-oxopyrrolidin-2-yl)methyl)amino)methyl)pyridin-2-yl)-[1,1′-biphenyl]-3-yl)-3-((6-hydroxy-2-azaspiro[3.3]heptan-2-yl)methyl)-4H-pyrido[1,2-a]pyrimidin-4-one] yielded an IC50 of 1300 nM. With `COc1nc(-c2cccc(-c3cccc(-c4ccn5c(=O)c(C)c(CNCCO)nc5c4)c3Cl)c2Cl)ccc1CNC[C@@H]1CCC(=O)N1` [Example 371, (S)-8-(2,2′-Dichloro-3′-(6-methoxy-5-((((5-oxopyrrolidin-2-yl)methyl)amino)methyl)pyridin-2-yl)-[1,1′-biphenyl]-3-yl)-2-(((2-hydroxyethyl)amino)methyl)-3-methyl-4H-pyrido[1,2-a]pyrimidin-4-one] the IC50 was 33 nM. `COc1nc(-c2cccc(-c3cccc(-c4ccn5c(=O)c(CNCCN6CCCC6=O)cnc5c4)c3Cl)c2Cl)ccc1CNCCN1CCCC1=O` [Example 321, 8-[2-Chloro-3-[2-chloro-3-[6-methoxy-5-[[2-(2-oxopyrrolidin-1-yl)ethylamino]methyl]-2-pyridyl]phenyl]phenyl]-3-[[2-(2-oxopyrrolidin-1-yl)ethylamino]methyl]pyrido[1,2-a]pyrimidin-4-one] showed an IC50 of 0.2 nM. `COc1nc(-c2cccc(-c3cccc(-c4ccc(CN5CCCC[C@H]5C(=O)O)c(OC)n4)c3Cl)c2Cl)ccc1CNC[C@@H]1CCC(=O)N1` [Example 494, (S)-1-((6-(2,2′-Dichloro-3′-(6-methoxy-5-(((((S)-5-oxopyrrolidin-2-yl)methyl)amino)-methyl)pyridin-2-yl)-[1,1′-biphenyl]-3-yl)-2-methoxypyridin-3-yl)methyl)piperidine-2-carboxylic acid] was tested, and the IC50 was 0.1 nM. `Cc1c(-c2ccn3c(=O)c(CNC[C@@H]4CCC(=O)N4)cnc3c2)cccc1-c1cccc(-c2ccc3c(c2)CC(NC(=O)CN)C3)c1Cl` (mixture of isomers) [Example 43, 2-Amino-N-(5-(2-chloro-2′-methyl-3′-(4-oxo-3-(((((S)-5-oxopyrrolidin-2-yl)methyl)amino)methyl)-4H-pyrido[1,2-a]pyrimidin-8-yl)-[1,1′-biphenyl]-3-yl)-2,3-dihydro-1H-inden-2-yl)acetamide] showed an IC50 of 270 nM. `COc1nc(-c2cccc(-c3cccc(-c4cc5c(=O)n(C)c(CNC[C@H]6CNC(=O)C6)nn5c4)c3Cl)c2Cl)ccc1CNC[C@@H]1CCC(=O)N1` [Example 476, 6-[2-Chloro-3-[2-chloro-3-[6-methoxy-5-[[[(2S)-5-oxopyrrolidin-2-yl]methylamino]methyl]-2-pyridyl]phenyl]phenyl]-3-methyl-2-[[[(3S)-5-oxopyrrolidin-3-yl]methylamino]methyl]pyrrolo[2,1-f][1,2,4]triazin-4-one] gave an IC50 of 33 nM. Compound `COc1nc(-c2cccc(-c3cccc(-c4ccn5c(=O)c(CNCCNC(C)=O)cnc5c4)c3Cl)c2Cl)ccc1CNCCNC(C)=O` [Example 69, N-(2-(((6-(3′-(3-(((2-Acetamidoethyl)amino)methyl)-4-oxo-4H-pyrido[1,2-a]pyrimidin-8-yl)-2,2′-dichloro-[1,1′-biphenyl]-3-yl)-2-methoxypyridin-3-yl)methyl)amino)ethyl)acetamide] has an IC50 of 1.9 nM. For `COc1nc(-c2cccc(-c3cccc(-c4ccc5c(n4)CCN(C[C@@H]4CCC(=O)N4)C5)c3Cl)c2Cl)ccc1CNC[C@@H]1CCC(=O)N1` [Example 426, (S)-5-((((6-(2,2′-Dichloro-3′-(6-(((S)-5-oxopyrrolidin-2-yl)-methyl)-5,6,7,8-tetrahydro-1,6-naphthyridin-2-yl)-[1,1′-biphenyl]-3-yl)-2-methoxypyridin-3-yl)-methyl)-amino)-methyl)pyrrolidin-2-one], the IC50 was 0.1 nM. For `COc1nc(-c2cccc(-c3cccc(-c4ccn5c(=O)c(CNC6CC7(CCNC7=O)C6)cnc5c4)c3Cl)c2Cl)ccc1CNC[C@@H]1CCC(=O)N1` (single isomer, unassigned) [Example 249], the IC50 was 0.6 nM. For `COc1nc(-c2cccc(-c3cccc(-c4ccn5c(=O)c(CNC[C@@H]6CCC(=O)N6)c(C)nc5c4)c3Cl)c2Cl)ccc1CNC[C@@H]1CCC(=O)N1` [Example 164, 8-(2,2′-Dichloro-3′-(6-methoxy-5-(((((S)-5-oxopyrrolidin-2-yl)methyl)amino)methyl)pyridin-2-yl)-[1,1′-biphenyl]-3-yl)-2-methyl-3-(((((S)-5-oxopyrrolidin-2-yl)methyl)amino)methyl)-4H-pyrido[1,2-a]pyrimidin-4-one], the IC50 was 1.3 nM. Compound `COc1nc(-c2cccc(-c3cccc(-c4cn5c(CNC[C@@H]6CCC(=O)N6)cnc5cn4)c3Cl)c2Cl)ccc1CNC[C@@H]1CCC(=O)N1` [Example 309, (S)-5-((((6-(2,2′-Dichloro-3′-(3-(((((S)-5-oxopyrrolidin-2-yl)methyl)amino)methyl)imidazo[1,2-a]pyrazin-6-yl)-[1,1′-biphenyl]-3-yl)-2-methoxypyridin-3-yl)methyl)amino)methyl)pyrrolidin-2-one] has an IC50 of 0.3 nM. Compound `COc1nc(-c2cccc(-c3cccc(-c4ccn5c(=O)c(CN(C)C[C@@H]6CCC(=O)N6)cnc5c4)c3C)c2Cl)ccc1CNC[C@@H]1CCC(=O)N1` [Example 54, 8-(2′-Chloro-3′-(6-methoxy-5-(((((S)-5-oxopyrrolidin-2-yl)methyl)amino)methyl)pyridin-2-yl)-2-methyl-[1,1′-biphenyl]-3-yl)-3-((methyl(((S)-5-oxopyrrolidin-2-yl)methyl)amino)methyl)-4H-pyrido[1,2-a]pyrimidin-4-one] has an IC50 of 7 nM. Compound `COc1nc(-c2cccc(-c3cccc(-c4ccn5c(=O)c(CNC[C@@H](C)O)cnc5c4)c3Cl)c2Cl)ccc1CNC[C@H](C)O` [Example 195, 8-(2,2′-Dichloro-3′-(5-((((S)-2-hydroxypropyl)amino)methyl)-6-methoxypyridin-2-yl)-[1,1′-biphenyl]-3-yl)-3-((((R)-2-hydroxypropyl)amino)methyl)-4H-pyrido[1,2-a]pyrimidin-4-one] has an IC50 of 2.5 nM. With `COc1nc(-c2cccc(-c3cccc(-c4ccn5c(=O)c(CN6CC7(CNC(=O)C7)C6)cnc5c4)c3Cl)c2Cl)ccc1CN1CC2(CNC(=O)C2)C1` [Example 70, 8-(2,2′-Dichloro-3′-(6-methoxy-5-((7-oxo-2,6-diazaspiro[3.4]octan-2-yl)methyl)pyridin-2-yl)-[1,1′-biphenyl]-3-yl)-3-((7-oxo-2,6-diazaspiro[3.4]octan-2-yl)methyl)-4H-pyrido[1,2-a]pyrimidin-4-one] the IC50 was 7.1 nM. For `COc1nc(-c2cccc(-c3cccc(-c4ccn5c(=O)c(CNC[C@@H]6CCC(=O)N6)cnc5c4)c3Cl)c2Cl)ccc1CN1CC(CO)(CO)C1` [Example 159, (S)-8-(3′-(5-((3,3-Bis(hydroxymethyl)azetidin-1-yl)methyl)-6-methoxypyridin-2-yl)-2,2′-dichloro-[1,1′-biphenyl]-3-yl)-3-((((5-oxopyrrolidin-2-yl)methyl)amino)methyl)-4H-pyrido[1,2-a]pyrimidin-4-one], the IC50 was 1.3 nM. With `COc1nc(-c2cccc(-c3cccc(-c4ccn5c(=O)c(CNC[C@@H]6CCC(=O)N6)cnc5c4)c3Cl)c2Cl)ccc1C1(CN)CC1` [Example 283, (S)-8-(3′-(5-(1-(Aminomethyl)cyclopropyl)-6-methoxypyridin-2-yl)-2,2′-dichloro-[1,1′-biphenyl]-3-yl)-3-((((5-oxopyrrolidin-2-yl)methyl)amino)methyl)-4H-pyrido[1,2-a]pyrimidin-4-one] the IC50 was 150 nM. `Cc1c(COc2cc(OCc3cncc(C#N)c3)c(CNCCO)cc2Cl)cccc1-c1cccc(-n2cnc3cc(CNCCO)ccc3c2=O)c1` [Example 5, 5-((4-Chloro-2-(((2-hydroxyethyl)amino)methyl)-5-((3′-(7-(((2-hydroxyethyl)amino)methyl)-4-oxoquinazolin-3(4H)-yl)-2-methyl-[1,1′-biphenyl]-3-yl)methoxy)phenoxy)methyl)nicotinonitrile] was tested, and the IC50 was 150 nM. For `O=C1CC[C@@H](CNCc2nc3cc(-c4cccc(-c5cccc(-c6ccn7c(=O)c(CNC[C@@H]8CCC(=O)N8)cnc7c6)c5Cl)c4Cl)ccn3c2Cl)N1` [Example 429, 8-[2-Chloro-3-[2-chloro-3-[3-chloro-2-[[[(2S)-5-oxopyrrolidin-2-yl]methylamino]methyl]imidazo[1,2-a]pyridin-7-yl]phenyl]phenyl]-3-[[[(2S)-5-oxopyrrolidin-2-yl]methylamino]methyl]pyrido[1,2-a]pyrimidin-4-one], the IC50 was 240 nM. `COc1nc(-c2cccc(-c3cccc(-c4ccn5c(=O)c(CNC[C@@H]6CCC(=O)N6)cnc5c4)c3Cl)c2Cl)ccc1CNCCO` [Example 102, (S)-8-(2,2′-Dichloro-3′-(5-(((2-hydroxyethyl)amino)methyl)-6-methoxypyridin-2-yl)-[1,1′-biphenyl]-3-yl)-3-((((5-oxopyrrolidin-2-yl)methyl)amino)methyl)-4H-pyrido[1,2-a]pyrimidin-4-one] gave an IC50 of 7.1 nM.
